According to PubChem BioAssay AID248 (DTP/NCI, 2004):
Where “and” joins values, the source holds several entries; their conditions need not be identical. Identical values can stand only once. Inconclusive results and toxic doses are left out. Cut-off read from the data, not from the text of the source: active = T/C of 150% or more; inactive = T/C below 125%.

System: L1210 leukemia ip in BDF1 mice, survival T/C
Experiment: NCI In Vivo Anticancer Drug Screen. Data for tumor model L1210 Leukemia (intraperitoneal) in B6D2F1 (BDF1) mice
Conditions: endpoint: mean survival time, higher = longer survival
Procedure, shortened: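 Ratio derived from survival: compound-dosed mice over vehicle-dosed mice, all bearing a transplantable tumor.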

[1] = dose: 100.0 mg/kg/injection, schedule: Q01DX001 (ip), vehicle: Klucel (hydroxypropylcellulose) (HPC)
[2] = dose: 100.0 mg/kg/injection, schedule: Q04DX003 (ip), vehicle: Klucel (hydroxypropylcellulose) (HPC)
[3] = dose: 200.0 mg/kg/injection, schedule: Q01DX001 (ip), vehicle: Klucel (hydroxypropylcellulose) (HPC)
[4] = dose: 200.0 mg/kg/injection, schedule: Q04DX003 (ip), vehicle: Klucel (hydroxypropylcellulose) (HPC)
[5] = dose: 400.0 mg/kg/injection, schedule: Q01DX001 (ip), vehicle: Klucel (hydroxypropylcellulose) (HPC)
[6] = dose: 400.0 mg/kg/injection, schedule: Q04DX003 (ip), vehicle: Klucel (hydroxypropylcellulose) (HPC)
[7] = dose: 100.0 mg/kg/injection, schedule: Q01DX009 (ip), vehicle: Klucel (hydroxypropylcellulose) (HPC)
[8] = dose: 200.0 mg/kg/injection, schedule: Q01DX009 (ip), vehicle: Klucel (hydroxypropylcellulose) (HPC)
[9] = dose: 400.0 mg/kg/injection, schedule: Q01DX009 (ip), vehicle: Klucel (hydroxypropylcellulose) (HPC)
[10] = dose: 100.0 mg/kg/injection, schedule: Q04DX003 (ip), vehicle: saline with Tween-80
[11] = dose: 200.0 mg/kg/injection, schedule: Q04DX003 (ip), vehicle: saline with Tween-80
[12] = dose: 400.0 mg/kg/injection, schedule: Q04DX003 (ip), vehicle: saline with Tween-80
[13] = dose: 100.0 mg/kg/injection, schedule: Q04DX003 (ip), vehicle: saline
[14] = dose: 200.0 mg/kg/injection, schedule: Q04DX003 (ip), vehicle: saline
[15] = dose: 400.0 mg/kg/injection, schedule: Q04DX003 (ip), vehicle: saline
[16] = dose: 100.0 mg/kg/injection, schedule: Q01DX001 (ip), vehicle: saline
[17] = dose: 200.0 mg/kg/injection, schedule: Q01DX001 (ip), vehicle: saline
[18] = dose: 400.0 mg/kg/injection, schedule: Q01DX001 (ip), vehicle: saline
[19] = dose: 100.0 mg/kg/injection, schedule: Q01DX001 (ip), vehicle: carboxymethylcellulose (CMC)

Measured: T/C

O=C1OCCN1C(=O)c1ccc(C(=O)N2CCOC2=O)cc1
inactive: [1] 94 % of control | dose: 100.0 mg/kg/injection, schedule: Q01DX007 (ip), vehicle: Klucel (hydroxypropylcellulose) (HPC) 89 % of control | [2] 97 % of control | [3] 87 % of control | dose: 200.0 mg/kg/injection, schedule: Q01DX007 (ip), vehicle: Klucel (hydroxypropylcellulose) (HPC) 92 % of control | [4] 101 % of control | [5] 92 % of control | dose: 400.0 mg/kg/injection, schedule: Q01DX007 (ip), vehicle: Klucel (hydroxypropylcellulose) (HPC) 90 % of control | [6] 95 % of control

CCCCCCCCCCCCCCCCCCNC(=O)Nc1ccc(C(C)C)cc1
inactive: [7] 95 % of control | [2] 89 % of control | [8] 92 % of control | [4] 89 % of control | [9] 92 % of control

CC(=O)c1c(C)cc(C)c(CC(=O)O)c1C
inactive: dose: 75.0 mg/kg/injection, schedule: Q01DX009 (ip), vehicle: Klucel (hydroxypropylcellulose) (HPC) 104 % of control | dose: 150.0 mg/kg/injection, schedule: Q01DX009 (ip), vehicle: Klucel (hydroxypropylcellulose) (HPC) 97 % of control | dose: 300.0 mg/kg/injection, schedule: Q01DX009 (ip), vehicle: Klucel (hydroxypropylcellulose) (HPC) 93 % of control

C=CC1C(C(=O)Nc2ccccc2)CN1C (configuration not stated)
inactive: [10] 107 % of control | [11] 107 % of control | [12] 116 % of control

Cc1cc(C)c(C)c(NC(=O)NCCCl)c1C
inactive: [1] 92 % of control | [3] 88 % of control

Nc1ccc2ccc3ccc4ccccc4c3c2c1
inactive: [1] 97 % of control | [2] 104 % of control | [3] 103 % of control | [4] 113 % of control | [5] 100 % of control | [6] 90 % of control

N#CC1CC2([N+](=O)[O-])c3ccccc3C1c1ccccc12 (configuration not stated)
inactive: [7] 96 % of control | [2] 105 % of control | [13] 105 % of control | [8] 102 % of control | [4] 108 % of control | [14] 108 % of control | [9] 94 % of control | [6] 102 % of control | [15] 102 % of control

CCOC(=O)c1sc2ccc([N+](=O)[O-])cc2c1C
inactive: [16] 93 % of control | [17] 95 % of control | [18] 104 % of control

NC(=O)c1cc([N+](=O)[O-])c(Cl)c([N+](=O)[O-])c1
inactive: dose: 20.0 mg/kg/injection, schedule: Q04DX003 (ip), vehicle: Klucel (hydroxypropylcellulose) (HPC) 97 % of control | dose: 40.0 mg/kg/injection, schedule: Q04DX003 (ip), vehicle: Klucel (hydroxypropylcellulose) (HPC) 97 % of control | dose: 80.0 mg/kg/injection, schedule: Q04DX003 (ip), vehicle: Klucel (hydroxypropylcellulose) (HPC) 103 % of control

CC(C)C/C=C/C(=O)CC(=O)OC(C)C
inactive: dose: 75.0 mg/kg/injection, schedule: Q01DX001 (ip), vehicle: other 97 % of control | dose: 150.0 mg/kg/injection, schedule: Q01DX001 (ip), vehicle: other 101 % of control | dose: 300.0 mg/kg/injection, schedule: Q01DX001 (ip), vehicle: other 117 % of control

NCCCN=C(N)C(N)=NCCCN
inactive: [13] 98 % of control | [14] 95 % of control | [15] 104 % of control

CSc1ccc(NC(=O)Nc2ccc(Cl)cc2[N+](=O)[O-])cc1
inactive: [7] 97 % of control | [8] 91 % of control

COc1cc(N(CCCl)CCCl)c(OC)cc1/C=N\Nc1nncn1N
inactive: dose: 1.2 mg/kg/injection, schedule: Q01DX015 (ip), vehicle: carboxymethylcellulose (CMC) 109 % of control | dose: 1.4 mg/kg/injection, schedule: Q01DX015 (ip), vehicle: carboxymethylcellulose (CMC) 105 % of control | dose: 2.2 mg/kg/injection, schedule: Q01DX015 (ip), vehicle: carboxymethylcellulose (CMC) 107 % of control | dose: 2.5 mg/kg/injection, schedule: Q01DX015 (ip), vehicle: carboxymethylcellulose (CMC) 109 % of control | dose: 3.3 mg/kg/injection, schedule: Q01DX015 (ip), vehicle: carboxymethylcellulose (CMC) 110 % of control | dose: 15.0 mg/kg/injection, schedule: Q01DX015 (ip), vehicle: carboxymethylcellulose (CMC) 96 % of control and 103 % of control | dose: 33.0 mg/kg/injection, schedule: Q01DX001 (ip), vehicle: carboxymethylcellulose (CMC) 124 % of control | [19] 105 % of control

N#Cc1ccccc1NN=Nc1ccccc1-c1nc(N)nc(N)n1
inactive: dose: 25.0 mg/kg/injection, schedule: Q04DX003 (ip), vehicle: saline 97 % of control | dose: 50.0 mg/kg/injection, schedule: Q04DX003 (ip), vehicle: saline 103 % of control

CC1(C)C2CC3C(C(=O)O)C(C(=O)O)CCC3(C2)C1OC=O (configuration not stated)
inactive: [2] 99 % of control | [4] 92 % of control | [6] 103 % of control

O=C(Nc1ccccc1)NS(=O)(=O)CS(=O)(=O)NC(=O)Nc1ccccc1
inactive: [16] 104 % of control | [17] 102 % of control | [18] 109 % of control

NC(=O)c1ccc(OCc2cnc3nc(N)nc(N)c3n2)cc1
inactive: dose: 20.0 mg/kg/injection, schedule: Q01DX009 (ip), vehicle: Klucel (hydroxypropylcellulose) (HPC) 98 % of control | dose: 40.0 mg/kg/injection, schedule: Q01DX009 (ip), vehicle: Klucel (hydroxypropylcellulose) (HPC) 95 % of control | dose: 80.0 mg/kg/injection, schedule: Q01DX009 (ip), vehicle: Klucel (hydroxypropylcellulose) (HPC) 109 % of control

O=C1CCC/C1=C/c1ccccc1
inactive: [19] 97 % of control | [2] 93 % of control | dose: 200.0 mg/kg/injection, schedule: Q01DX001 (ip), vehicle: carboxymethylcellulose (CMC) 91 % of control | [4] 95 % of control | dose: 400.0 mg/kg/injection, schedule: Q01DX001 (ip), vehicle: carboxymethylcellulose (CMC) 91 % of control | [6] 88 % of control

OC1(C2CCCCC2)C2CCCC1CCC2 (configuration not stated)
inactive: dose: 100.0 mg/kg/injection, schedule: Q01DX009 (ip), vehicle: other 94 % of control | [10] 99 % of control | dose: 200.0 mg/kg/injection, schedule: Q01DX009 (ip), vehicle: other 94 % of control | [11] 92 % of control | dose: 400.0 mg/kg/injection, schedule: Q01DX009 (ip), vehicle: other 101 % of control | [12] 103 % of control

CCC1(CC)C=CC(Br)CC1(CC)CC (configuration not stated)
inactive: [10] 103 % of control | [11] 101 % of control | [12] 101 % of control

CN(c1ccccc1)S(=O)(=O)c1ccc(NC(=O)CBr)cc1
inactive: dose: 37.5 mg/kg/injection, schedule: Q01DX001 (ip), vehicle: Klucel (hydroxypropylcellulose) (HPC) 86 % of control | dose: 75.0 mg/kg/injection, schedule: Q01DX001 (ip), vehicle: Klucel (hydroxypropylcellulose) (HPC) 93 % of control

Cc1ccccc1NC(N)=O
inactive: [2] 110 % of control | [4] 105 % of control | [6] 103 % of control

Cc1ccccc1[P+](Cc1ccccc1)(c1ccccc1)c1ccccc1
inactive: dose: 5.0 mg/kg/injection, schedule: Q01DX001 (ip), vehicle: saline 105 % of control | dose: 10.0 mg/kg/injection, schedule: Q01DX001 (ip), vehicle: saline 103 % of control | dose: 20.0 mg/kg/injection, schedule: Q01DX001 (ip), vehicle: saline 100 % of control

CC(=O)N(C)c1ccc(NC(=O)Nc2ccc([N+](=O)[O-])cc2Cl)cc1
inactive: [13] 96 % of control | [14] 95 % of control | [15] 88 % of control

N#CC(NC(=O)NCCCl)c1ccccc1 (configuration not stated)
inactive: [2] 104 % of control | [4] 101 % of control

CC1=C(OCC(C)C)CCCC1=O
inactive: dose: 50.0 mg/kg/injection, schedule: Q01DX009 (ip), vehicle: saline with Tween-80 88 % of control | dose: 100.0 mg/kg/injection, schedule: Q01DX009 (ip), vehicle: saline with Tween-80 96 % of control | dose: 200.0 mg/kg/injection, schedule: Q01DX009 (ip), vehicle: saline with Tween-80 96 % of control

CCCCCCCCCCCCCCCCN(C(C)C)S(=O)(=O)c1ccc(Cl)c(N)c1
inactive: dose: 100.0 mg/kg/injection, schedule: Q01DX009 (ip), vehicle: saline 89 % of control | [2] 98 % of control | dose: 200.0 mg/kg/injection, schedule: Q01DX009 (ip), vehicle: saline 89 % of control | [4] 96 % of control | dose: 400.0 mg/kg/injection, schedule: Q01DX009 (ip), vehicle: saline 102 % of control | [6] 89 % of control
